Test results taken from patent US9487489B2, “Halogen-substituted pyrazole derivatives as pest-control agents” (BAYER CROPSCIENCE AKTIENGESELLSCHAFT, priority 2013, dated 2016).
“And” between values parts separate entries of the source, which are not always exact repeats. Identical values can stand only once.

What was measured:
[1] = tested on: adult cat fleas (Ctenocephalides felis); test: Ctenocephalides felis oral test (CTECFE); format: in vivo; details: application rate 100 ppm in citrated cattle blood; after 2 days
Outline: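 About 20 unfed adult cat fleas fed through parafilm membrane on citrated cattle blood containing compound (DMSO stock diluted in blood to test concentration). Kill % scored after 2 days (100% = all fleas dead).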

[2] = logP determination by HPLC on a reversed-phase column (C18), EEC Directive 79/831 Annex V.A8; format: physicochemical
Outline: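 Retention on a C18 reversed-phase column (Zorbax Eclipse Plus, 1.8 micron) was used, eluting with acetonitrile/water, each containing formic acid. The gradient ran from 10% to 95% acetonitrile over 4.25 min, then held 1.25 min, at 55° C and 2.0 ml/min, with MS detection.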

[3] = tested on: L1 larvae of the Australian sheep blowfly (Lucilia cuprina); test: Lucilia cuprina test (LUCICU); format: in vivo; details: application rate 100 ppm; after 2 days
Outline: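 About 20 L1 larvae placed in a vessel with minced horsemeat plus compound (DMSO concentrate diluted with water to the desired concentration). Kill in % scored after 2 days, 100% meaning all larvae dead.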

[4] = tested on: green peach aphid (Myzus persicae); test: Myzus persicae spray test (MYZUPE); format: in vivo; details: Chinese cabbage leaf discs, after 6 days
Outline: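 Chinese cabbage leaf discs infested with all aphid stages sprayed with compound in acetone/DMF with alkylaryl polyglycol ether emulsifier in water. Efficacy (% aphids killed; 100% all dead, 0% none) scored after 6 days.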

[5] = tested on: adult cat fleas (Ctenocephalides felis); test: Ctenocephalides felis in vitro contact test with adult cat fleas (T1); details: after 48 h
Outline: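 Test compound was dissolved in acetone p.a. (9 mg per 1 ml) and diluted as needed. 250 μl was spread evenly over the inner walls and floor of a 25 ml test tube by rotating on an orbital shaker for 2 h at 30 rpm. Once the solvent evaporated, 5-10 adult Ctenocephalides felis were added. Tubes were capped with a perforated plastic lid and kept horizontal at room temperature and ambient humidity.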

[6] = tested on: larvae of the mustard beetle (Phaedon cochleariae); test: Phaedon cochleariae spray test (PHAECO); format: in vivo; details: Chinese cabbage leaf discs, after 7 days
Outline: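 Compound dissolved in acetone/dimethylformamide with alkylaryl polyglycol ether emulsifier, made up in water containing 1000 ppm emulsifier, then diluted to test concentrations and sprayed against mustard beetle larvae. Efficacy (% larvae killed) scored after 7 days.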

[7] = tested on: bont tick nymphs (Amblyomma hebraeum); details: after 48 h
[8] = tested on: caterpillars of the armyworm (Spodoptera frugiperda); test: Spodoptera frugiperda spray test (SPODFR); format: in vivo; details: maize leaf discs, after 7 days
Outline: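 Maize leaf discs sprayed with compound in acetone/DMF with alkylaryl polyglycol ether emulsifier (1000 ppm) in water, dried, then infested with armyworm caterpillars. Mortality (%) scored after 7 days; 100% = all caterpillars killed, 0% = none killed.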

[9] = tested on: engorged adult female cattle ticks (Boophilus microplus); test: Boophilus microplus injection test (BOOPMI Inj); format: in vivo; details: application rate 20 μg/animal; injection into abdomen; assessed after 7 days
Outline: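 DMSO solution of compound (1 μl) injected into the abdomen of 5 engorged adult female ticks, which are then held in a climate-controlled room. After 7 days, efficacy is scored from laying of fertile eggs, with unclear eggs kept until larval hatch (~42 days); 100% means no fertile eggs, 0% all fertile.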

[10] = tested on: adult houseflies (Musca domestica); test: Musca domestica test (MUSCDO); format: in vivo; details: application rate 100 ppm; after 2 days
Outline: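 Compound dissolved in DMSO and diluted with water to the test concentration, applied with sugar solution on a sponge; 10 adult houseflies per vessel. Mortality scored after 2 days as % kill (100% all dead, 0% none).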

[11] = tested on: cattle ticks (Boophilus microplus) Parkhurst strain, SP-resistant; test: Boophilus microplus dip test (BOOPMI Dip); format: in vivo; details: application rate 100 ppm, assessed after 7 days
Experimental: B. Boophilus microplus-dip Test (BOOPMI Dip)
Test animals: cattle ticks (Boophilus microplus) Parkhurst strain, SP-resistant
Solvent: dimethyl sulphoxide
10 mg of active compound are dissolved in 0.5 ml of dimethyl sulphoxide. For the purpose of preparing a suitable formulation, the active compound solution is diluted with water to the concentration desired in each case.
This active compound preparation is pipetted into tubes. 8-10 adult engorged female cattle ticks (Boophilus microplus) are transferred into a further tube with holes. The tube is immersed into the active compound formulation, and all ticks are completely wetted. After the liquid has run out, the ticks are transferred on filter discs into plastic dishes and stored in a climate-controlled room.
The activity is assessed after 7 days by laying of fertile eggs. Eggs whose fertility is not visible from the outside are stored in a climate-controlled cabinet until the larvae hatch after about 42 days. An efficacy of 100% means that none of the ticks has laid any fertile eggs; 0% means that all eggs are fertile.

[12] = tested on: greenhouse red spider mite (Tetranychus urticae); test: Tetranychus urticae spray test, OP-resistant (TETRUR); format: in vivo; details: bean leaf discs, after 6 days
Outline: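 Bean leaf discs carrying all stages of OP-resistant Tetranychus urticae were sprayed with compound formulated in acetone/dimethylformamide and diluted in water with 1000 ppm alkylaryl polyglycol ether emulsifier. Mortality (% efficacy, 100% = all mites killed) scored after 6 days.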

[13] = tested on: adult castor bean ticks (Ixodes ricinus); test: Ixodes ricinus in vitro contact test with adult castor bean ticks (T3); details: after 48 h
Experimental: T3. Ixodes ricinus-in vitro Contact Tests with Adult Castor Bean Ticks
For the coating of the test tubes, initially 9 mg of active compound are dissolved in 1 ml of acetone p.a. and then diluted with acetone p.a. to the desired concentration. By turning and rocking on an orbital shaker (2 h of rocking rotation at 30 rpm), 250 μl of the solution are distributed homogeneously on the internal walls and the floor of a 25 ml test tube. At 900 ppm active compound solution and 44.7 cm^2 internal surface, an area dose of 5 μg/cm^2 is achieved for homogeneous distribution.
After evaporation of the solvent, the tubes are populated with 5-10 adult castor bean ticks (Ixodes ricinus), sealed with a perforated plastic lid and incubated in a horizontal position in the dark at 22° C. and 90% humidity in a climate-controlled cabinet. After 48 h, the efficacy is determined. To this end, the ticks are knocked to the floor of the tube and incubated on a hotplate at 45-50° C. for at most 5 min. Ticks which remain motionless on the floor or move in an uncoordinated manner such that they are not able to deliberately avoid the heat by climbing upwards are considered to be dead or moribund.
An efficacy of 100% means that all ticks were dead or moribund. 0% efficacy means that none of the ticks had been damaged.

[14] = tested on: adult dog ticks (Rhipicephalus sanguineus); test: Rhipicephalus sanguineus in vitro contact test with adult brown dog ticks (T2); details: after 48 h
Outline: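 Acetone solutions coated onto test tube walls and floor, giving 5 μg/cm^2 at 900 ppm. Five to ten adult ticks held per tube in the dark at room temperature for 48 h, then heated at 45-50° C for up to 5 min; efficacy is the percentage of dead or moribund ticks unable to climb away.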

[15] = HPLC on reversed-phase column (C18), acetonitrile/water with formic acid, EEC Directive 79/831 Annex V.A8

Row | SMILES | efficacy (kill in %) [1] [%] | efficacy (kill in %) [3] [%] | efficacy in % ([4]; application rate 100 g/ha) [%] | efficacy (dead or moribund fleas) ([5]; application rate 1 μg/cm^2) [%] | efficacy (dead or moribund fleas) ([5]; application rate 5 μg/cm^2) [%] | efficacy in % ([6]; application rate 100 g/ha) [%] | efficacy (dead or moribund ticks) [7] | efficacy in % ([8]; application rate 100 g/ha) [%] | efficacy (laying of fertile eggs) [9] [%] | efficacy (kill in %) [10] [%] | efficacy (laying of fertile eggs) [11] [%] | efficacy in % ([12]; application rate 100 g/ha) [%] | logP [2, 15] | efficacy in % ([6]; application rate 500 g/ha) [%] | efficacy (dead or moribund ticks) ([13]; application rate 1 μg/cm^2) [%] | efficacy (dead or moribund ticks) ([13]; application rate 5 μg/cm^2) [%] | efficacy in % ([8]; application rate 500 g/ha) [%] | efficacy in % ([12]; application rate 500 g/ha) [%] | efficacy (dead or moribund ticks) ([14]; application rate 1 μg/cm^2) [%] | efficacy (dead or moribund ticks) ([14]; application rate 5 μg/cm^2) [%] | further results
1 | Cn1nc(C(F)(F)C(F)(F)F)c(C(F)(F)F)c1-n1cnc(-c2ccc(Cl)c(C(=O)NC3(C#N)CC3)c2)c1 [Ib-2] | 100 | 100 | 90 | 100 | 100 | 100 | 100% | 100 | 100 | 100 | 100 | 100 |  |  |  |  |  |  |  |  | logP ([2]; HPLC, reversed-phase C18, acetonitrile (0.1% formic acid)/water (0.09% formic acid) gradient): 3.38
2 | Cn1nc(C(F)(F)C(F)(F)F)c(C(F)(F)F)c1-n1cc(-c2ccc(Cl)c(C(=O)NCc3ccccc3)c2)cn1 [Ic-3] | 100 | 100 |  |  |  | 100 | 100% and 80% | 100 | 100 | 100 |  | 90 | 4.39 |  |  |  |  |  |  |  | 
3 | COc1ncc(-c2cnn(-c3c(C(F)(F)F)c(C(F)(F)C(F)(F)F)nn3C)c2)cc1C(=O)NC1(C#N)CC1 [Ic-87] | 100 | 100 | 90 | 100 | 100 |  | 100% |  | 100 | 100 |  |  |  | 100 | 80 | 100 | 100 | 100 | 100 | 100 | 
4 | COc1ncc(-c2cnn(-c3c(C(F)(F)F)c(C(F)(F)C(F)(F)F)nn3C)c2)cc1C(=O)NC1CC1 [Ic-86] | 100 | 100 |  | 100 | 100 |  | 100% |  | 100 | 100 | 100 |  |  | 100 | 80 | 100 | 100 | 100 | 100 | 100 | efficacy in % ([4]; application rate 500 g/ha): 100%
5 | Cn1nc(C(F)(F)C(F)(F)F)c(C(F)(F)F)c1-n1cc(-c2cc(C(=O)NC3(C#N)CC3)c(F)cc2Cl)cn1 [Ic-48] | 100 | 100 | 90 | 100 | 100 |  | 100% |  | 100 | 100 | 80 | 90 |  | 100 | 80 | 100 | 100 |  | 100 | 100 | 
6 | Cn1nc(C(F)(F)C(F)(F)F)c(C(F)(F)F)c1-n1cc(-c2ccc(Cl)c(C(=O)NC3(C(F)(F)F)CC3)c2)cn1 [Ic-32] | 100 | 100 |  |  | 80 | 100 | 100% | 100 | 100 | 100 |  | 100 | 4.29 |  |  |  |  |  | 80 |  | 
7 | Cn1nc(C(F)(F)C(F)(F)F)c(C(F)(F)F)c1-n1cc(-c2cccc(C(=O)NC3CC3)c2)cn1 [Ic-18] | 100 | 100 |  | 100 | 100 | 100 | 100% | 100 | 100 | 100 |  |  | 3.66 |  |  | 80 |  |  | 100 | 100 | 
8 | Cn1nc(C(F)(F)C(F)(F)F)c(C(F)(F)F)c1-n1cc(-c2cccc(C(=O)NC3(C#N)CC3)c2)cn1 [Ic-19] | 100 | 100 |  | 100 | 100 | 100 | 100% | 100 | 100 | 100 |  | 100 | 3.61 |  |  |  |  |  | 100 | 80 | 
9 | Cc1cc(-c2cnn(-c3c(C(F)(F)F)c(C(F)(F)C(F)(F)F)nn3C)c2)cc(C(=O)NC2CC2)c1Cl [Ic-90] | 100 | 100 |  | 100 | 100 |  | 100% |  | 100 | 100 | 100 |  |  | 100 | 100 | 100 | 100 | 90 | 100 | 100 | efficacy in % ([4]; application rate 500 g/ha): 100%
